These are literature values, as cited in patent US20250177439A1, “LOW DOSE PRE-MIX FEED FOR TRACE MINERAL SUPPLEMENTATION” (Chemlock Operating LLC d/b/a Chemlock Nutrition, priority 2023, published 2025).

The conditions of this series: 105-140 ppm zinc compared to 132-177 pmm of zinc.

As to “Zinc chloride hydroxide monohydrate [zinc hydroxy chloride]”, the skin strength entry was “enhanced the skin strength”.
